From ChEMBL document CHEMBL5126665, “A Dimerosesquiterpene and Sesquiterpene Lactones from Artemisia argyi Inhibiting Oncogenic PI3K/AKT Signaling in Melanoma Cells” (J Nat Prod, 2022)
Activity calls are given as the source filed them. The calls are words filed in the database; no cut-off is given here.

What was measured:
Type in all cases: cell-based
[1] = Inhibition of PI3K/AKT signalling pathway in human MM121224 cells stably expressing H2B-mTurquoise, ERK-KTR-mScarlet and FoxO3a-KTR-mNeonGreen fluorophore assessed as AKT activity by high-content screening microscopic analysis
[2] = tested on: MM121224; assay: Inhibition of PI3K/AKT signalling pathway in human MM121224 cells assessed as downregulation of AKT phosphorylation at Ser473 residue by immunostaining based analysis
[3] = tested on: MM121224; assay: Inhibition of PI3K/AKT signalling pathway in human MM121224 cells stably expressing H2B-mTurquoise, ERK-KTR-mScarlet and FoxO3a-KTR-mNeonGreen fluorophore assessed as AKT activity at 25 uM by high-content screening microscopic analysis
[4] = Toxicity against human MM121224 cells at 50 to 200 uM by high-content screening microscopic analysis; conditions: mm121224, 200 µM, dose 50-200 µM

Row | IC50 [1] | SMILES | also measured
1 | 16.9 µM | C=C1C(=O)O[C@H]2[C@H]1[C@@H](OC(=O)CC(C)C)CC(C)=C1C[C@H]3O[C@@]3(C)[C@@H]12 | –
2 | 11.2 µM | C=C1C(=O)O[C@@H]2C3=C(C)C(=O)C[C@@H](O)[C@]3(C)CC[C@@H]12 | inhibition [2]: Active
3 | 14.2 µM | C=C1C(=O)O[C@H]2[C@H]1[C@@H](OC(=O)CC(C)C)CC(=C)[C@]1(O)C[C@H]3O[C@@]3(C)[C@H]21 | –
4 | 24.6 µM | C=C1C(=O)O[C@H]2[C@H]1[C@@H](OC(=O)C(C)CC)C=C(C)[C@]1(O)C[C@@H](O)[C@@](C)(O)[C@H]21 (stereo partly specified) | –
5 | 25.1 µM | C=C1C(=O)O[C@H](C2=C(C)[C@H](OC(C)=O)CC2=O)[C@H]1CCC(C)=O | inhibition [2]: Active
6 | 14.2 µM | C=C1C(=O)O[C@H]2[C@H]1[C@@H](OC(=O)C(C)CC)CC(=C)[C@]1(O)C[C@H]3O[C@@]3(C)[C@H]21 (stereo partly specified) | –
7 | 25.9 µM | C=C1C(=O)O[C@H]2[C@H]1[C@@H](OC(C)=O)CC(C)=C1C[C@H]3O[C@@]3(C)[C@@H]12 | –
8 | 119 µM | C=C1C(=O)O[C@H]2[C@H]1CC[C@@](C)(O)[C@]13O[C@H]1[C@H]1O[C@@]1(C)[C@H]23 [ARTECANIN] | –
9 | 27.9 µM | C=C1C(=O)O[C@H]2[C@H]1[C@@H](OC(=O)CC(C)C)C=C(C)[C@]1(O)C[C@@H](O)[C@@](C)(O)[C@H]21 | –
10 | 22.5 µM | C=C1C(=O)O[C@H]([C@@H]2C(=O)C=C[C@]2(C)O)[C@H]1CCC(C)=O [SECOTANAPARTHOLIDE B] | –
11 | 52.7 µM | C=C1C(=O)O[C@@H]2[C@H]3C(C)=CC[C@@H](O)[C@]3(C)CC[C@@H]12 [SANTAMARIN] | –
12 | 22.9 µM | C=C1C(=O)O[C@H]2[C@H]1[C@@H](OC(C)=O)C=C(C)[C@]1(O)C[C@H]3O[C@@]3(C)[C@H]21 | –
13 | 35.7 µM | C=C1C(=O)O[C@@H]2[C@@H]3[C@@]4(C=C[C@@]3(C)[C@]3(C4)C(=O)O[C@@H]4[C@H]5C(C)=CC(=O)C5=C(C)C[C@H](OC(C)=O)[C@H]43)[C@](C)(O)CC[C@@H]12 | inhibition [2]: Active
14 | 15.3 µM | C=C1C(=O)O[C@@H]2[C@H]3C(C)=CC(=O)C3=C(C)C[C@H](OC(=O)CC(C)C)[C@@H]12 | –
15 | 27.7 µM | C=C1C(=O)O[C@H]2[C@H]1CC[C@@](C)(O)[C@@]13C=C[C@](C)([C@H]4[C@H](CC(=O)OC)[C@H](C/C=C\CC)C(=O)[C@H]41)[C@H]23 | inhibition [2]: Active
16 | 22.1 µM | C=C(C(=O)OC)[C@@H]1CC[C@]2(C)C(=C(C)C(=O)C[C@H]2O)[C@H]1O | inhibition [2]: Active
17 | 14.7 µM | C=C1C(=O)O[C@@H]2[C@@H]3[C@@]4(C=C[C@@]3(C)[C@@]3(C4)C(=O)O[C@@H]4[C@H]5C(C)=CC(=O)C5=C(C)C[C@H](OC(C)=O)[C@H]43)[C@](C)(O)CC[C@@H]12 | –
18 | 27.7 µM | C=C1C(=O)O[C@@H]2[C@H]3C(C)=CC(=O)C3=C(C)C[C@H](OC(=O)C(C)CC)[C@@H]12 (stereo partly specified) | –
19 | 26.5 µM | C=C1C(=O)O[C@H]2[C@H]1CC[C@@](C)(O)[C@]13C=C[C@@](C)([C@H]21)[C@@]1(C3)C(=O)C[C@]2(C(C)C)C[C@@H]21 | –
20 | 9.8 µM | C=C1C(=O)O[C@@H]2[C@H]3C(C)=CC(=O)C3=C(C)C[C@H](OC(=O)/C(C)=C\C)[C@@H]12 | –
21 | 38.4 µM | C=C1C(=O)O[C@H]2[C@H]1CC[C@@](C)(O)[C@@]13O[C@@H]1[C@@H]1O[C@]1(C)[C@H]23 | –
22 | 8.9 µM | C=C1C(=O)O[C@@H]2[C@H]3C(C)=CC(=O)C3=C(C)C[C@H](OC(=O)C=C(C)C)[C@@H]12 | inhibition [3]: Active; Activity [4]: Toxic; inhibition [2]: Active
23 | 11 µM | C=C1C(=O)O[C@@H]2[C@H]3C(C)=CC(=O)C3=C(C)C[C@H](OC(C)=O)[C@@H]12 | –
24 | 46.2 µM | C=C1C(=O)O[C@H]2[C@H]1[C@@H](OC(C)=O)CC(=C)[C@]1(O)C[C@H]3O[C@@]3(C)[C@H]21 | –
25 | 38 µM | C=C1C(=O)O[C@H]([C@H]2C(=O)C=C[C@@]2(C)O)[C@H]1CCC(C)=O | –
26 | 23.6 µM | C=C1C(=O)O[C@@H]2[C@H]3C(C)=CC(=O)C3=C(C)CC[C@@H]12 [DEHYDROLEUCODIN] | –

Row | SMILES | IC50 [1] | also measured
27 | C=C1C(=O)O[C@@H]2[C@H]3C(C)=CC(=O)C3=C(C)C[C@H](O)[C@@H]12 | 15.1 µM | inhibition [2]: Active
